The values below come from US10093973B2, “Polymerase compositions and methods” (LIFE TECHNOLOGIES CORPORATION, priority 2009, dated 2018).

Common to all, as to assay type: biochemical
The subject of assay [1] is 5′-[32P]-labeled templates or 5′-TAMRA-labeled templates. Kind of assay: Photostability assay (primer extension after 405 nm excitation radiation). The conditions noted are these: after 30 seconds of exposure at 50 W/cm2, 405 nm. The source says: The photostability of an exemplary reference polymerase comprising a His-tagged version of Phi-29 polymerase (“HP1; see, e.g., U.S. Provisional Application No. 61/184,770, filed Jun. 5, 2009 for disclosure of HP1 sequence and purification) comprising the amino acid sequence of SEQ ID NO: 20, and an exemplary modified polymerase comprising the amino acid sequence of SEQ ID NO: 19 and further comprising the amino acid substitution D175A were characterized by measuring the amount of primer extension observed in each sample prior to and following exposure to excitation radiation at 405 nm Reactions (100 μL) containing 50 mM Tris, pH 7.5, 50 mM NaCl, 1 mM DTT, 2 mM MnCl2, 0.3% BSA, 10-200 nM polymerase and 100 nM nanoparticles (or premade polymerase-nanoparticle conjugates; see, e.g., U.S. Provisional Application No. 61/184,770 filed Jun. 5, 2009), and 100 nM 5′-[^32P]-labeled templates or 5′-TAMRA-labeled templates were prepared with and without the Oxygen Scavenging System (OSS). […] Polymerase activity was quantified as the % of extended primer (as compared to the total starting amount of primer), as measured by densitometric analysis. Phototoxicity is quantified by measuring the percent decrease in polymerase activity that occurs when samples are illuminated compared to non-illuminated samples. The photostability is quantified by subtracting the observed photosensitivity from 100.

Assay [2] deals with ωdN4P and non-extendible AF546 primer:template duplex. Kind of assay: Stopped-flow t−1 measurement of Example 7. The conditions noted are these: modified versus reference polymerase, ωdN4P 14 μM. As to the method:
In this example, the t−1 values of an exemplary modified polymerase comprising the amino acid of SEQ ID NO: 8 and an exemplary reference polymerase comprising the amino acid sequence of SEQ ID NO: 20 were measured and compared. These kinetic parameters were evaluated using an assay system wherein mixtures comprising a test polymerase and a primer:template duplex were mixed in a stopped-flow assay with nucleotides. To measure t−1, the primer used to form the primer:template duplex was a non-extendible primer including a dideoxynucleotide at its 3′ end, and the template was a synthetic DNA template comprising a donor Alexa Fluor 546 moiety at its 5′ end. […] The ternary complex was mixed with unlabeled nucleotides in a stopped-flow experiment, and the resulting fluorescence was monitored as described below. […]
Preincubated mixtures comprising 200 nM of a primer:templex duplex, 660 nM of test polymerase, and 14 μM of ωdN4P were prepared and then mixed with a solution comprising the unlabeled cognate nucleotide (50 μM) in a stopped-flow apparatus. The fluorescence at both 546 nm and 647 nm was monitored following mixing. The averaged stopped-flow fluorescence traces were fitted with a single exponential function having the form of Equation (1) to extrapolate the t−1 value of the test polymerase.

The test system of assay [3] is ωdN4P and extendible AF546 primer:template duplex. Kind of assay: Stopped-flow tpol measurement of Example 8. The conditions noted are these: modified versus reference polymerase, ωdN4P 14 μM. As to the method: In this example, the tpol values of an exemplary modified polymerase comprising the amino acid of SEQ ID NO: 8 and was measured and compared to the tpol value of an exemplary reference polymerase comprising the amino acid sequence of SEQ ID NO: 20. These kinetic parameters were evaluated using a stopped-flow assay wherein a mixture comprising an extendible dye-labeled primer:template duplex and test polymerase was mixed with a solution comprising terminally-labeled nucleotide tetraphosphates or terminally-labeled nucleotide hexaphosphates. These terminally-labeled nucleotides comprise terminal-phosphate-labeled nucleotides having an alkyl linker with a functional amine group attached to the dye. The fluorescence of the resulting mixture was monitored over time. Unless noted otherwise, all concentrations refer to the initial concentrations prior to mixing. […]
Each primer-template duplex (200 nM) was preincubated with test polymerase (660 nM) and to form an E.DNA binary complex. This binary complex was mixed with the cognate omega-labeled nucleoside tetraphosphate (ωdN4P; 14 μM) in a stopped-flow experiment, and the fluorescence at both 546 nm and 647 nm was monitored following mixing. The averaged stopped-flow fluorescence traces were fitted with the double exponential function of Equation (2) to extrapolate the tpol value of the test polymerase: […]

As to “HP1: Phi-29 polymerase lacking exonuclease activity with N-terminal His-tag, linker, D12A and D66A mutations [reference compound]”, the “% activity retained” value in assay [1] was “less than 40%”. On to “SEQ ID NO: 1: exemplary polymerase of the bacteriophage Phi-29 [reference compound]”, for which the “estimated t−1 values” in assay [2] is “comparable”. For the same substance, the estimated tpol values result in assay [3] was “comparable”.
